Literature values in patent US9186326B2 (Kimia Zist Parsian (KZP), priority 2014, dated 2015).

Test system: glucocorticoid effect

For Dexamethasone, the mineral corticoid effect is given as “minimal mineral corticoid effect” and the “potency relative to cortisol in glucocorticoid effect” value (versus cortisol) is given as “twenty five”.
